Source: ChEMBL document CHEMBL5143519, “Exploring disordered loops in DprE1 provides a functional site to combat drug-resistance in Mycobacterium strains” (Eur J Med Chem, 2022)
≈ marks a conversion by molar mass, not a printed value. Calls of active or inactive are those of the source. The calls are words filed in the database; no cut-off is given here.

Key:
[1] = tested on: Mycobacterium tuberculosis variant bovis; experiment: Antimycobacterial activity against Mycobacterium bovis BCG assessed as inhibition of bacterial growth incubated for 7 days by microplate alamar blue assay; assay type: functional; settings: 168 h, time 7 day
[2] = tested on: Mycobacterium tuberculosis variant bovis; experiment: Antimycobacterial activity against Mycobacterium bovis BCG overexpressing DprE1 assessed as inhibition of bacterial growth incubated for 7 days by microplate alamar blue assay; assay type: functional; settings: 168 h, time 7 day
[3] = tested on: Mycobacterium tuberculosis variant bovis; experiment: Antimycobacterial activity against Mycobacterium bovis BCG assessed as reduction in bacterial colony forming units at 20 times MIC concentration measured after 21 days by time kill assay; assay type: functional; settings: time 21 day
[4] = tested on: Mycobacterium tuberculosis variant bovis; experiment: Antimycobacterial activity against Mycobacterium bovis BCG assessed as reduction in bacterial colony forming units at 20 times MIC concentration measured after 7 days by time kill assay; assay type: functional, organism-based; settings: time 7.0 day
[5] = tested on: Mycobacterium tuberculosis variant bovis; experiment: Antimycobacterial activity against Mycobacterium bovis BCG overexpressing DprE1 assessed as reduction in bacterial colony forming units at 20 times MIC concentration measured after 21 days by time kill assay; assay type: functional, organism-based; settings: time 21.0 day

Row | Compound | MIC [1] | MIC [2] | Activity [3] | Activity [4] | Activity [5]
1 | CCOC(=O)NC(=O)c1ccsc1NC(=O)c1nc2ccccc2s1 | 13.3 µM (≈ 4.99 µg/mL) | 66.5 µM (≈ 25 µg/mL) | 3 log10CFU/ml |  | 
2 | O=C(NC(=O)c1ccsc1NC(=O)c1nc2ccccc2s1)OCC1CC1 | 3.11 µM (≈ 1.25 µg/mL) | 12.4 µM (≈ 4.99 µg/mL) | 3 log10CFU/ml | Active | Active
3 | CO[C@H]1/C=C/O[C@@]2(C)Oc3c(C)c(O)c4c(O)c(c(/C=N/N5CCN(C)CC5)c(O)c4c3C2=O)NC(=O)/C(C)=C\C=C\[C@H](C)[C@H](O)[C@@H](C)[C@@H](O)[C@@H](C)[C@H](OC(C)=O)[C@@H]1C [RIFAMPIN] | 0.35 µM (≈ 0.288 µg/mL) | 0.35 µM (≈ 0.288 µg/mL) | 3 log10CFU/ml |  | 
4 | O=C(NC(=O)c1ccsc1NC(=O)c1nc2ccccc2s1)OCC1CCC1 | 12 µM (≈ 4.99 µg/mL) | 30 µM (≈ 12.5 µg/mL) |  |  | 
